The results in this text go back to patent US20190183811A1, “COMPOSITION CONTAINING SQUALENE FOR IMPROVING MUSCLE FUNCTION AND PREVENTING MUSCLE DAMAGE” (AAT COSTECH CO., LTD., priority 2016, published 2019).

Experiment [1] deals with atrogin-1 mRNA in C2C12 muscle cells. The experiment in a line: RT-PCR of atrogin-1 mRNA expression in C2C12 muscle cells treated with squalene. Type of experiment: cell-based. The following applies: cultured 12 hours, FIG. 3. On the procedure:
(§1) Thus, in order to identify whether the produced muscle proteins can also be protected against degradation through degradation-inhibitory activity of squalene, mRNA transcriptional expression levels of atrogin-1 and MuRF1 which are muscle-degrading proteins were checked.
(§2) Specifically, C2C12 muscle cells were treated with squalene and cultured for 12 hours while inducing differentiation, by performing the same method as in the above <Example 1>. The resulting cells were obtained. Total RNA was isolated from the obtained cells using a TRIzol reagent (Invitrogen, Carlsbad, Calif., USA). The isolated total RNA was quantitated using NanoDrop 1000 (Thermo Fisher Scientific Inc., Waltham, Mass., USA). The quantified 16 μL of RNA was synthesized into cDNA using Reverse Transcriptase Premix (ELPISBIOTECH. INC) and a PCR machine (Gene Amp PCR System 2700; Applied Biosystems, Foster City, Calif., USA) under a condition at 42° C. for 55 minutes and 70° C. for 15 minutes. 3 μL of cDNA out of the synthesized cDNA, specific primers (BIONEER CORPORATION, Daejeon, Korea) as shown in the following [Table 1], and a PCR premix (ELPISBIOTECH. INC) were mixed, and PCR was performed by repeating 30 cycles of 95° C. for 30 seconds, 60° C. for 1 minute, and 72° C. for 1 minute. […]

Experiment [2] concerns p-mTOR in C2C12 muscle cells. The experiment in a line: Western blot of phosphorylated mTOR (p-mTOR) in C2C12 muscle cells treated with squalene. Type of experiment: cell-based. To be noted: FIG. 1. Here is the method: In a case where mTOR protein is activated by phosphorylation, expression levels of major proteins in muscle cells which are expressed upon differentiation and are associated with muscle protein synthesis and muscle mass increase in a PI3K/Akt signaling pathway were checked. The obtained cells were lysed with an NP-40 buffer solution (ELPISBIOTECH. INC, Daejeon, Korea) containing a protease inhibitor cocktail (Sigma-Aldrich), and centrifuged at 13,000 rpm for 10 minutes to obtain a cell lysate which is a supernatant. A protein concentration in the supernatant was quantitated by Bradford. Then, a predetermined concentration of the proteins was heated for 5 minutes and separated by SDS-PAGE electrophoresis. The separated proteins were transferred to a nitrocellulose membrane. Then, a p-mTOR primary antibody (Cell Signaling Technology, Inc., Beverly, Mass., USA) was diluted with 2.5% bovine serum albumin (BSA; BioWORLD, Dublin, Ohio, USA) at a ratio of 1:1,000, and the resultant was allowed to react with the proteins, which had been transferred to the nitrocellulose membrane, at room temperature for 20 hours. […] Protein bands detected through antibody binding were developed using the ECL Western Blot Detection Reagent (Amersham, Tokyo, Japan), and the developed protein bands were identified using a G:BOX EF imaging system (Syngene, Cambridge, UK).

The subject of experiment [3] is p-p70S6K in C2C12 muscle cells. In words: Western blot of p-p70S6K protein in C2C12 muscle cells treated with squalene. To be noted: FIG. 2. Type of experiment: cell-based. On the procedure:
Thus, in order to identify this fact in a more specific manner, a phosphorylation-induced activity level of p70S6K protein, which is known to be involved in an mRNA translation process in muscle cells, was checked, instead of an expression level of p-mTOR. Specifically, C2C12 muscle cells were treated with squalene and cultured while inducing differentiation, by performing the same method as in the above <Example 1>. The resulting cells were obtained and subjected to western blotting. A p-p70S6K antibody (Santa Cruz Biotechnology, Inc., Santa Cruz, Calif., USA) was used as a primary antibody for western blotting.
For orientation: Immunoblotting shows a protein as a band on a membrane.

Experiment [4] deals with immobilized rats (muscle atrophy and muscle damage). The experiment in a line: Weight of tibialis anterior muscle of right hindlimb after immobilization. Type of experiment: in vivo, rats (C57BL/6J). To be noted: muscle not damaged by stapler, squalene 100 and 200 mg/kg/day oral for one week, vs immobilized group, *P<0.05, FIG. 5. Here is the method:
(§3) Seven-week-old male rats (C57BL/6J; DBL Co., Ltd.) were purchased as experimental animals, and experiments were conducted. All animals were kept at the Yonsei Laboratory Animal Research Center (YLARC, Seoul, Korea), and an environment under which the animals were kept was maintained at a temperature of 23±2° C. and a relative humidity of 55±10%. Before starting experiments, a total of 28 rats were randomly assigned to 7 rats per group, and the groups were divided into a normal group, an immobilized group, 100 mg/kg/day of squalene-administered group (squalene 100-administered group), and 200 mg/kg/day of squalene-administered group (squalene 200-administered group). After one week of adaptation, anesthesia was induced by intraperitoneal injection of 325 mg/kg of tribromoethanol (Sigma-Aldrich). […] One week later, the staples fixed on the gastrocnemius muscle and the sole were removed and squalene was orally administered at a concentration of 100 mg/kg and 200 mg/kg on a daily basis for one week. The normal group and the immobilized group were orally administered saline instead of squalene. After the measurement of muscular strength in the above <Example 4-2> was completed, the experimental animals were anesthetized by intraperitoneal injection of 325 mg/kg of tribromoethanol (Sigma-Aldrich), and then sacrificed by cardiac puncture. […]

Experiment [5] shares this test system. The experiment in a line: Weight of muscle physically directly damaged by the stapler (regeneration of damaged muscles). To be noted: right hindlimb, squalene 100 and 200 mg/kg/day oral for one week, vs immobilized group, **P<0.01, FIG. 7. Type of experiment: in vivo, rats (C57BL/6J). Here is the method: Seven-week-old male rats (C57BL/6J; DBL Co., Ltd.) were purchased as experimental animals, and experiments were conducted. All animals were kept at the Yonsei Laboratory Animal Research Center (YLARC, Seoul, Korea), and an environment under which the animals were kept was maintained at a temperature of 23±2° C. and a relative humidity of 55±10%. Before starting experiments, a total of 28 rats were randomly assigned to 7 rats per group, and the groups were divided into a normal group, an immobilized group, 100 mg/kg/day of squalene-administered group (squalene 100-administered group), and 200 mg/kg/day of squalene-administered group (squalene 200-administered group). After one week of adaptation, anesthesia was induced by intraperitoneal injection of 325 mg/kg of tribromoethanol (Sigma-Aldrich). […] One week later, the staples fixed on the gastrocnemius muscle and the sole were removed and squalene was orally administered at a concentration of 100 mg/kg and 200 mg/kg on a daily basis for one week. The normal group and the immobilized group were orally administered saline instead of squalene. In the rat from which the tibialis anterior muscle of the right hindlimb was extracted in the above <Example 4-3>, a […] of the right hind limb, which was physically directly damaged by the stapler, was extracted and weighed.

In experiment [6] the test system is MuRF1 mRNA in C2C12 muscle cells. In words: RT-PCR of MuRF1 mRNA expression in C2C12 muscle cells treated with squalene. The following applies: cultured 12 hours, FIG. 3. Type of experiment: cell-based. On the procedure:
as §1, §2

In experiment [7] the test system is immobilized rats (muscle atrophy and muscle damage). In words: Myofiber cross-sectional area in tibialis anterior muscle (H&E staining, Image J). To be noted: squalene 100 and 200 mg/kg/day oral for one week; vs immobilized group, **P<0.01; FIG. 6. Type of experiment: in vivo, rats (C57BL/6J). Here is the method: Seven-week-old male rats (C57BL/6J; DBL Co., Ltd.) were purchased as experimental animals, and experiments were conducted. All animals were kept at the Yonsei Laboratory Animal Research Center (YLARC, Seoul, Korea), and an environment under which the animals were kept was maintained at a temperature of 23±2° C. and a relative humidity of 55±10%. Before starting experiments, a total of 28 rats were randomly assigned to 7 rats per group, and the groups were divided into a normal group, an immobilized group, 100 mg/kg/day of squalene-administered group (squalene 100-administered group), and 200 mg/kg/day of squalene-administered group (squalene 200-administered group). After one week of adaptation, anesthesia was induced by intraperitoneal injection of 325 mg/kg of tribromoethanol (Sigma-Aldrich). […] One week later, the staples fixed on the gastrocnemius muscle and the sole were removed and squalene was orally administered at a concentration of 100 mg/kg and 200 mg/kg on a daily basis for one week. The normal group and the immobilized group were orally administered saline instead of squalene. […] In addition, myofibers were photographed and a cross-sectional area thereof was measured with an Image J program (National Institutes of Health, Bethesda, […], USA).

Experiment [8] shares this test system. In words: Muscular strength (muscular strength meter) after hindlimb immobilization. Type of experiment: in vivo, rats (C57BL/6J). To be noted: squalene 100 and 200 mg/kg/day oral for one week after one week immobilization; vs immobilized group, **P<0.01; FIG. 4. On the procedure: as §3, with “the oral administration period was completed” for “the measurement of muscular strength”, “<Example 4-1>, muscular strength of the rats” for “<Example 4-2>”, “was measured using a muscular strength meter (Columbus Instruments International, Columbus, Ohio, USA). All forelimbs and hindlimbs of” for “was completed,”, “the rat” for “the experimental animals”, “were grasped on a grid.” for “were anesthetized by intraperitoneal injection of 325 mg/kg of tribromoethanol (Sigma-Aldrich), and then sacrificed by cardiac puncture.”

Regarding `CC(C)=CCC/C(C)=C/CC/C(C)=C/CC/C=C(\C)CC/C=C(\C)CCC=C(C)C` [squalene, (6E,10E,14E,18E)-2,6,10,15,19,23-hexamethyltetracosa-2,6,10,14,18,22-hexaene], in experiment [1], the “mRNA expression level of atrogin-1” value is “decreased”. The “expression level of phosphorylated mTOR (p-mTOR)” value in experiment [2] is “increased”. The “expression level of the p-p70S6K protein” value in experiment [3] is recorded as “increased”. In addition, the “weight of the tibialis anterior muscle” value in experiment [4] is recorded as “increased in a concentration-dependent manner”. Further, the “weight of the tibialis anterior muscle physically directly damaged by the stapler” value in experiment [5] was “increased in a concentration-dependent manner”. Besides, the “mRNA expression level of MuRF1” value in experiment [6] is given as “decreased”. Moreover, in experiment [7], the “myofiber cross-sectional area in the tibialis anterior muscle” value was “increased in a concentration-dependent manner”. In addition, the muscular strength result in experiment [8] is “restored in a concentration-dependent manner”.
